# Test results published in PMC4864979 (Bioorganic & medicinal chemistry, 2015).
# Tested on: 50 kinases
# Assay: Profiling against 50 kinases, radioactive filter-binding assay
# Assay type: biochemical
# Conditions: duplicate (Supplementary Figure 1)
compound,measurement,value
"NCCCNc1nc(Nc2cccc(NC(=O)N3CCCC3)c2)ncc1I [Compound 3, N-(3-((4-((3-aminopropyl)amino)-5-iodopyrimidin-2-yl)amino)phenyl)pyrrolidine-1-carboxamide]",selectivity throughout the kinome,good selectivity throughout the kinome
